Results from US5075322A, “Selenophen derivatives, a preparation process of the same and therapeutical compositions containing them” (Societe de Conseils de Recherches et d'Applications …, priority 1989, dated 1991).

How the values were obtained:
[1] = tested on: ovalbumine-induced bronchospasm; assay: ovalbumine-induced bronchospasm in anaesthetized passively sensitized guinea-pigs; type: in vivo
Procedure: In the ovalbumine-induced bronchospasm in anaesthetized passively sensitized guinea-pigs, compound XI and ketotifen, administered 1 hour before the injection of ovalbumine, inhibit the bronchoconstriction (>90%) in a dose-dependant-manner respectively with following ED50 (P.O.)
For both products, the activity disappears at 24 hours.
The kinetic results, after administration by oral route of the said compounds at 0.1 mg/kg and 0.05 mg/kg (P.O.), for 1 to several hours before ovalbumine injection (1 mg/kg), are reported respectively in tables 1 and 2.
(§1) The different symbols NS, *, ** and *** which may be found in the different tables, mean that the result is respectively not significative, significative, very significative and highly significative.

[2] = anti-allergic activity (general statements)
[3] = tested on: rat washed platelets; assay: PAF-induced aggregation of rat washed platelets in vitro; type: cell-based; conditions: Platelet, PAF 5.10^-10 M
Text: In vitro: effects on aggregation (IC50) induced by PAF (5·10^-10 M), rat washed platelets are as follow: IC50 Compound XI 2.10^-6 M. IC50 Ketotifen 10^-5 M.

[4] = tested on: B.S.A.-induced immune lethality in mice; assay: B.S.A.-induced immune lethality (anaphylactic shock) in actively sensitized mice; type: in vivo
Text: as §1
At the same dose, ketotifen has no effect.

[5] = tested on: PAF induced bronchospasm; assay: PAF-induced bronchospasm in artificially-ventilated anaesthetized guinea pigs; type: in vivo; conditions: for Percentage of bronchoconstriction / Percentage of effect: Table VII, PAF 60 mg/kg IV
Text: as §1

[6] = tested on: histamine induced bronchospasm; assay: histamine-induced bronchospasm in artificially ventilated anaesthetized guinea pigs; type: in vivo; conditions: for % of bronchoconstriction / % of effect: Table V, 0.1 mg/kg PO
Procedure: as §1
The kinetic results of the administration of compound XI and ketotifen by oral route at 0.1 mg/kg (P.O.), 1 to 27 h histamine injection (15 mg IV), are reported in table 5.

[7] = tested on: ovalbumine-induced bronchospasm; assay: ovalbumine-induced bronchoconstriction in passively sensitized rats; type: in vivo; conditions: for Percentage of bronchoconstriction / Percentage of effect: Table IV
Text: as §1

[8] = tested on: ovalbumine-induced bronchospasm; assay: ovalbumine-induced bronchospasm in actively sensitized guinea pigs; type: in vivo; conditions: Table III, 0.1 mg/kg PO
Text: as §1

[9] = tested on: histamine induced bronchospasm; assay: histamine-induced bronchospasm in artificially ventilated anaesthetized guinea pigs; type: in vivo; conditions: Cavia porcellus, po, 1 h, read-out: ED50 (P.O.)
[10] = Table I, 0.1 mg/kg PO, pretreatment 1 h
[11] = Table I, 0.1 mg/kg PO, pretreatment 3 h
[12] = Table I, 0.1 mg/kg PO, pretreatment 6 h
[13] = Table I, 0.1 mg/kg PO, pretreatment 9 h
[14] = Table I, 0.1 mg/kg PO, pretreatment 15 h
[15] = Table I, 0.1 mg/kg PO, pretreatment 18 h
[16] = Table I, 0.1 mg/kg PO, pretreatment 21 h
[17] = Table I, 0.1 mg/kg PO, pretreatment 24 h
[18] = Table II, 0.05 mg/kg PO, pretreatment 1 h
[19] = Table II, 0.05 mg/kg PO, pretreatment 3 h
[20] = Table II, 0.05 mg/kg PO, pretreatment 6 h
[21] = Table II, 0.05 mg/kg PO, pretreatment 9 h
[22] = Table II, 0.05 mg/kg PO, pretreatment 15 h
[23] = Table II, 0.05 mg/kg PO, pretreatment 18 h
[24] = Table II, 0.05 mg/kg PO, pretreatment 21 h

## CN1CCC(=C2c3ccccc3CC(=O)c3[se]ccc32)CC1 [Compound XI, 4-(1-methyl 4-piperidyliden) 9,10-dihydro 4H-benzo [4,5] cyclohepta [1,2-b] selenophen 10-one]
[1]; 0.1 mg/kg and 0.05 mg/kg P.O.
  time at which the activity disappears: 24 h
[1]; Cavia porcellus, po, 1 h, read-out: ED50 (P.O.)
  ED50: 0.0572 µmol/kg
[1]; [10]
  % of bronchoconstriction: 6.9 ± 1.0%
  % of effect: -91.5 ± 1.3%
[1]; [11]
  % of bronchoconstriction: 3.9 ± 1.1%
  % of effect: -93.7 ± 1.7%
[1]; [12]
  % of bronchoconstriction: 15.0 ± 11.5%
  % of effect: -75.9 ± 18.4%
[1]; [13]
  % of bronchoconstriction: 35.7 ± 18.8%
  % of effect: -60.1 ± 21.1%
[1]; [14]
  % of bronchoconstriction: 38.9 ± 13.7%
  % of effect: -50.7 ± 17.3%
[1]; [15]
  % of bronchoconstriction: 36.8 ± 17.5%
  % of effect: -62.0 ± 18.1%
[1]; [16]
  % of bronchoconstriction: 73.3 ± 14.2%
  % of effect: -24.3 ± 14.7%
[1]; [17]
  % of bronchoconstriction: 45.4 ± 15.2%
  % of effect: -27.1 ± 24.4%
[1]; [18]
  % of bronchoconstriction: 13.2 ± 5.4%
  % of effect: -85.1%
[1]; [19]
  % of bronchoconstriction: 17.7 ± 7.0%
  % of effect: -80.5%
[1]; [20]
  % of bronchoconstriction: 38.3 ± 16.5%
  % of effect: -60.4%
[1]; [21]
  % of bronchoconstriction: 49.2 ± 16.7%
  % of effect: -49.2%
[1]; [22]
  % of bronchoconstriction: 61.6 ± 18.7%
  % of effect: -6.5%
[1]; [23]
  % of bronchoconstriction: 50.7 ± 20.4%
  % of effect: -48.3%
[1]; [24]
  % of bronchoconstriction: 94.6 ± 4.4%
  % of effect: -3.5%
[1]; administered 1 hour before ovalbumine, P.O., dose-dependent
  inhibition of bronchoconstriction: > 90%
[2]
  anti-allergic activity compared with compound X: higher activity than compound X
[2]; oral drug
  histamine and ovalbumine antagonist activity: powerful histamine and ovalbumine antagonist
[3]
  IC50: 2000 nM
[4]; 0.275 mg/kg P.O.
  protective effect (in words): shows a protective effect
[4]; 0.275 mg/kg PO
  Mortality at 24 hours, % of mortality: 20%
  Mortality at 24 hours, % of variation: -67.5%
  Mortality at 24 hours, number of killed: 2/10
[4]; 0.550 mg/kg PO
  Mortality at 24 hours, % of mortality: 10%
  Mortality at 24 hours, % of variation: -83.7%
  Mortality at 24 hours, number of killed: 1/10
[5]; 1 hour before PAF, 0.1 mg/kg
  inhibition of PAF induced bronchospasm (in words): significantly inhibits the bronchospasm
[5]; 0.1 mg/kg PO
  Percentage of bronchoconstriction: 29.4 ± 7.9%
  Percentage of effect: -62.5%
[5]; 1 mg/kg PO
  Percentage of bronchoconstriction: 23.0 ± 9.7%
  Percentage of effect: -70.6%
[6]; 1 h
  % of bronchoconstriction: 2.0 ± 0.8%
  % of effect: -97.5 ± 1.0%
[6]; 3 h
  % of bronchoconstriction: 1.0 ± 1.0%
  % of effect: -98.8 ± 1.2%
[6]; 6 h
  % of bronchoconstriction: 5.4 ± 3.2%
  % of effect: -93.5 ± 3.8%
[6]; 9 h
  % of bronchoconstriction: 4.9 ± 1.7%
  % of effect: -93.6 ± 2.3%
[6]; 15 h
  % of bronchoconstriction: 36.6 ± 8.4%
  % of effect: -48.2 ± 11.8%
[6]; 18 h
  % of bronchoconstriction: 34.9 ± 18.1%
  % of effect: 61.7 ± 19.9%
[6]; 21 h
  % of bronchoconstriction: 52.9 ± 9.7%
  % of effect: 37.6 ± 11.5%
[6]; 24 h
  % of bronchoconstriction: 37.9 ± 9.9%
  % of effect: -42.3 ± 15.0%
[6]; 27 h
  % of bronchoconstriction: 76.8 ± 10.2%
  % of effect: +6.3 ± 14.1%
[6]; administered 1 hour before histamine (15 mg IV)
  inhibition of bronchoconstriction (in words): inhibit significantly the bronchoconstriction in a dose-dependant-manner
[6]; during the first hours, 0.1 mg/kg P.O.
  duration of total inhibition of the bronchospasm: 9 h
[7]; 0.1 mg/kg PO
  Percentage of bronchoconstriction: 18.1 ± 6.3%
  Percentage of effect: -49.4%
[7]; 1 mg/kg PO
  Percentage of bronchoconstriction: 11.2 ± 2.7%
  Percentage of effect: -68.7%
[7]; passively sensitized rats
  inhibition of bronchoconstriction (in words): inhibits the bronchoconstriction in a dose-dependant manner
[8]; pretreatment 1 h
  % of bronchoconstriction: 3.5 ± 1.1%
  % of effect: -96.1 ± 1.3%
[8]; pretreatment 3 h
  % of bronchoconstriction: 5.0 ± 1.6%
  % of effect: -93.4 ± 2.1%
[8]; pretreatment 6 h
  % of bronchoconstriction: 2.1 ± 0.6%
  % of effect: -97.3 ± 0.8%
[8]; pretreatment 9 h
  % of bronchoconstriction: 35.5 ± 15.9%
  % of effect: -61.1 ± 22.2%
[8]; pretreatment 15 h
  % of bronchoconstriction: 42.2 ± 16.6%
  % of effect: -50.6 ± 19.5%
[8]; pretreatment 18 h
  % of bronchoconstriction: 67.1 ± 19.0%
  % of effect: +22.7 ± 34.8%
[8]; pretreatment 21 h
  % of bronchoconstriction: 50.1 ± 21.6%
  % of effect: -8.3 ± 39.5%
[9]
  ED50: 0.0169 µmol/kg
